Experimental data as given in patent publication US20230159510A1, “NOVEL PRMT5 INHIBITORS” (AMGEN INC., priority 2020, published 2023).
Like-named read-outs stand apart in the source and are kept apart here.

Experiments:
[1] = biological target: PRMT5/MEP50 (Homo sapiens, UniProt O14744); assay: MTase-Glo methyl transferase assay, Method A (Histone H4 peptide, 1 µM MTA, 24 h pre-incubation); assay type: biochemical; parameters: made in house; conditions: read-out: PRMT5 MTase Glo Ki (nM, Meth. A)
PRMT5/MEP50, sequence (O14744 whole entry): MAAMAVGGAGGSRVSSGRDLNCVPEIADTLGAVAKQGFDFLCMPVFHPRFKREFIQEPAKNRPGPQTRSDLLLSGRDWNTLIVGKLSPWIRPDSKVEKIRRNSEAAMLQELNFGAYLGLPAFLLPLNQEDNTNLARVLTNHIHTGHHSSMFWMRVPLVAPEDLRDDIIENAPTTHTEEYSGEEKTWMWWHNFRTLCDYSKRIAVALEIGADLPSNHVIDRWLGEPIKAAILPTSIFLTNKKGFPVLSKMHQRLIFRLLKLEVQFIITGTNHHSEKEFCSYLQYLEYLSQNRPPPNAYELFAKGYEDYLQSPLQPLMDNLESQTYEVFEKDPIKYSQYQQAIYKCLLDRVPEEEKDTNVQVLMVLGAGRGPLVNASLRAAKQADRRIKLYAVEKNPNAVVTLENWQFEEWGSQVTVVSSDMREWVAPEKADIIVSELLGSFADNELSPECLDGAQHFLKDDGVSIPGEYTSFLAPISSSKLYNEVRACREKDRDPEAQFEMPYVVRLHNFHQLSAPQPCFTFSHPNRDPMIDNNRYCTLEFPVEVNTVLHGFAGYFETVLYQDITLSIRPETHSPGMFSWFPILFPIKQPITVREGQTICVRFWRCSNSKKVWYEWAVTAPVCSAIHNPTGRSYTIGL
PRMT5/MEP50, sequence (Q9BQA1 whole entry partner): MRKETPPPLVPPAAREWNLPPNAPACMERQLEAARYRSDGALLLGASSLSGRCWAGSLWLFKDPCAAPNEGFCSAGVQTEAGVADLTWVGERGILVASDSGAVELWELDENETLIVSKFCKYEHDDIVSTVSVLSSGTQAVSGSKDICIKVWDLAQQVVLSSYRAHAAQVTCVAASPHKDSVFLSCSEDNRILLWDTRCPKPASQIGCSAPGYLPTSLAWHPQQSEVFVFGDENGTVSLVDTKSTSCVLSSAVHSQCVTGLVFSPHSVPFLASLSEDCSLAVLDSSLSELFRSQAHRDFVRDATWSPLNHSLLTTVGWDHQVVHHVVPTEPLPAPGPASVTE
Summary of the method: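 PRMT5/MEP50 (10 nM) pre-incubated 24 h with compound, 5 µM SAM and 1 µM MTA, then reaction started with 1 µM Histone H4 (1-21) peptide and run 2 h at room temperature in Tris pH 8.0 buffer. SAH formed detected by MTase-Glo luminescence; IC50 and KI from dose-response curves.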

[2] = system: HCT116 MTAP null cells; assay: HCT116 proliferation assay, MTAP null cells (CellTiter-Glo, 6 days); assay type: cell-based; conditions: 144 h, read-out: Protif_ HCT116-MTAP null IC50
Summary of the method: (§1)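 RPMI 1640/10% FBS; overnight attachment at 37° C, 5% CO2; 8–9-pt 1:3 titration, top 1 or 10 µM; DMSO ctrl; luminescence readout.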

[3] = system: HCT116 WT cells; assay: HCT116 proliferation assay, WT cells (CellTiter-Glo, 6 days); assay type: cell-based; conditions: Homo sapiens, HCT-116, 144 h, read-out: Prolif_HCT116-WT IC50
Summary of the method: as §1

SMILES | Ki [1] | IC50 ([2]; HCT116-MTAP null) | IC50 [3] | IC50 [2]
Cc1cc2cc(C(=O)N(Cc3ccc(C4=CCCOC4)cn3)[C@H](C)c3ncccn3)ccc2nc1N [Example 558, 2-amino-N-((5-(5,6-dihydro-2H-pyran-3-yl)-2-pyridinyl)methyl)-3-methyl-N-((1R)-1-(2-pyrimidinyl)ethyl)-6-quinolinecarboxamide] | 0.08 nM | 38 nM | 1300 nM | –
Cc1cc2cc(C(=O)N(Cc3ccc(Br)nn3)[C@H](C)c3nccs3)ccc2nc1N [Example 514, 2-amino-N-((6-bromo-3-pyridazinyl)methyl)-3-methyl-N-((1R)-1-(1,3-thiazol-2-yl)ethyl)-6-quinolinecarboxamide] | 0.002 nM | 28 nM | 625 nM | –
COC[C@@H](C)N(Cc1ccc(C(F)(F)F)cn1)C(=O)c1ccc2nc(N)c(C)cc2c1 [Example 507, 2-amino-N-((2R)-1-methoxy-2-propanyl)-3-methyl-N-((5-(trifluoromethyl)-2-pyridinyl)methyl)-6-quinolinecarboxamide] | 0.15 nM | 46 nM | 913 nM | –
Cc1cc2cc(C(=O)N(Cc3ccc(C(F)(F)F)cn3)[C@H](C)c3ncccn3)c(Cl)cc2nc1N [Example 437, 2-amino-7-chloro-3-methyl-N-((1R)-1-(2-pyrimidinyl)ethyl)-N-((5-(trifluoromethyl)-2-pyridinyl)methyl)-6-quinolinecarboxamide] | 0.29 nM | 76 nM | 1350 nM | –
CC[C@H](c1ncccn1)N(Cc1ccc(C(F)(F)F)cn1)C(=O)c1cc2cc(Br)c(N)nc2cn1 (single isomer, unassigned) [Example 499] | 0.18 nM | 251 nM | > 10000 nM | –
Nc1nc2ncc(C(=O)N(Cc3ccc(C(F)(F)F)cn3)[C@@H]3CCCc4nccnc43)cc2cc1Br (single isomer, unassigned) [Example 467] | 0.21 nM | 28 nM | 248 nM | –
Cc1cc2cc(C(=O)N(Cc3ccc(C(F)(F)F)cn3)[C@@H]3CCOc4ccc(F)nc43)ccc2nc1N (single isomer, unassigned) [Example 451] | 0.02 nM | 13 nM | 232 nM | –
Cc1cc2cc(C(=O)N(Cc3ccc(C(F)(F)F)cn3)[C@@H]3COCC[C@@H]3O)ccc2nc1N (single isomer, unassigned) [Example 471] | 0.11 nM | 101 nM | 3110 nM | –
Cc1cc2cc(C(=O)N(Cc3ccc(N4CCC(F)(F)C4)cn3)[C@H](C)c3ncccn3)ccc2nc1N [Example 358, 2-amino-N-((5-(3,3-difluoro-1-pyrrolidinyl)-2-pyridinyl)methyl)-3-methyl-N-((1R)-1-(2-pyrimidinyl)ethyl)-6-quinolinecarboxamide] | 2.5 nM | 53 nM | 1370 nM | –
Cc1cc(N)nc2ccc(C(=O)N(Cc3ccc(C(F)(F)F)cn3)[C@H](C)c3ncccn3)cc12 [Example 432, 2-amino-4-methyl-N-((1R)-1-(2-pyrimidinyl)ethyl)-N-((5-(trifluoromethyl)-2-pyridinyl)methyl)-6-quinolinecarboxamide] | 0.57 nM | 24 nM | 110 nM | –
COC(=O)c1ccc(CN(Cc2ncccc2F)C(=O)c2ccc3nc(N)c(C)cc3c2)nc1 [Example 331, methyl 6-((((2-amino-3-methyl-6-quinolinyl)carbonyl)((3-fluoro-2-pyridinyl)methyl)amino)methyl)-3-pyridinecarboxylate] | 0.13 nM | 490 nM | > 10000 nM | –
C[C@H](c1ncccn1)N(Cc1ccc(Cl)cn1)C(=O)c1ccc2nc(N)c(Br)cc2c1 [Example 412, 2-amino-3-bromo-N-((5-chloro-2-pyridinyl)methyl)-N-((1R)-1-(2-pyrimidinyl)ethyl)-6-quinolinecarboxamide] | 0.18 nM | 123 nM | 4050 nM | –
Cc1cc2cc(C(=O)N(Cc3ccc(C#N)cn3)[C@H](C)c3ccccn3)ccc2nc1N (single isomer, unassigned) [Example 473] | 0.17 nM | 302 nM | 5110 nM | –
Cc1cc2cc(C(=O)N(Cc3ccc(C(F)(F)F)cc3)Cc3ncccc3F)ccc2nc1N [Example 328, 2-amino-N-((3-fluoro-2-pyridinyl)methyl)-3-methyl-N-(4-(trifluoromethyl)benzyl)-6-quinolinecarboxamide] | 0.41 nM | 178 nM | 4640 nM | –
Cc1cc2cc(C(=O)N(Cc3ccc(C(F)(F)F)cn3)C[C@H](C)C(F)(F)F)ccc2nc1N [Example 458, 2-amino-3-methyl-N-((2S)-3,3,3-trifluoro-2-methylpropyl)-N-((5-(trifluoromethyl)-2-pyridinyl)methyl)-6-quinolinecarboxamide] | 0.84 nM | – | > 10000 nM | 590 nM
Cc1cc2cc(C(=O)N(Cc3ccc(NCC(F)(F)F)nn3)[C@H](C)c3ncccn3)ccc2nc1N [Example 378, 2-amino-3-methyl-N-((1R)-1-(2-pyrimidinyl)ethyl)-N-((6-((2,2,2-trifluoroethyl)amino)-3-pyridazinyl)methyl)-6-quinolinecarboxamide] | 0.04 nM | 340 nM | 6960 nM | –
[2H]C([2H])([2H])Oc1ccc(CN(C(=O)c2ccc3nc(N)c(C)cc3c2)[C@H](C)c2ncccn2)nc1 (single isomer, unassigned) [Example 493] | 0.26 nM | 146 nM | 4080 nM | –
Cc1cc2cc(C(=O)N(Cc3ccc(Br)nn3)[C@H](C)c3ncccn3)c(F)cc2nc1N [Example 349, 2-amino-N-((6-bromo-3-pyridazinyl)methyl)-7-fluoro-3-methyl-N-((1R)-1-(2-pyrimidinyl)ethyl)-6-quinolinecarboxamide] | 0.02 nM | 36 nM | 848 nM | –
Cc1cc2cc(C(=O)N(Cc3ccc(C(F)F)cn3)Cc3ncccc3F)ccc2nc1N [Example 326, 2-amino-N-((5-(difluoromethyl)-2-pyridinyl)methyl)-N-((3-fluoro-2-pyridinyl)methyl)-3-methyl-6-quinolinecarboxamide] | 0.16 nM | 125 nM | 4320 nM | –
Cc1cc2cc(C(=O)N(Cc3ccc(C(F)(F)F)cn3)[C@@H](c3ncccn3)C3CC3)cnc2nc1N [Example 372, 7-amino-N-((R)-cyclopropyl(2-pyrimidinyl)methyl)-6-methyl-N-((5-(trifluoromethyl)-2-pyridinyl)methyl)-1,8-naphthyridine-3-carboxamide] | 0.33 nM | 124 nM | 2410 nM | –
Cc1cc2cc(C(=O)N(Cc3ccncc3)Cc3ccc(C(F)(F)F)cn3)ccc2nc1N [Example 342, 2-amino-3-methyl-N-(4-pyridinylmethyl)-N-((5-(trifluoromethyl)-2-pyridinyl)methyl)-6-quinolinecarboxamide] | 2.72 nM | 730 nM | > 10000 nM | –
Cc1cc2cc(C(=O)N(Cc3ccc(C(F)(F)F)cn3)Cc3ncn(C)n3)ccc2nc1N [Example 306, 2-amino-3-methyl-N-((1-methyl-1H-1,2,4-triazol-3-yl)methyl)-N-((5-(trifluoromethyl)-2-pyridinyl)methyl)-6-quinolinecarboxamide] | 0.76 nM | 401 nM | > 10000 nM | –
C[C@H](c1ncccn1)N(Cc1ccc(C(F)(F)F)cn1)C(=O)c1cc2cc(Cl)c(N)nc2cn1 [Example 422, 2-amino-3-chloro-N-((1R)-1-(2-pyrimidinyl)ethyl)-N-((5-(trifluoromethyl)-2-pyridinyl)methyl)-1,7-naphthyridine-6-carboxamide] | 0.2 nM | 360 nM | > 10000 nM | –
Cc1cc2cc(C(=O)N(Cc3cncc(Cl)c3)Cc3ccc(C(F)(F)F)cn3)ccc2nc1N [Example 439, 2-amino-N-((5-chloro-3-pyridinyl)methyl)-3-methyl-N-((5-(trifluoromethyl)-2-pyridinyl)methyl)-6-quinolinecarboxamide] | 1.19 nM | 344 nM | > 10000 nM | –
Cc1cc2cc(C(=O)N(Cc3ccc(Cl)cn3)CC(C)C)ccc2nc1N [Example 330, 2-amino-N-((5-chloro-2-pyridinyl)methyl)-3-methyl-N-(2-methylpropyl)-6-quinolinecarboxamide] | 1.87 nM | 628 nM | 8570 nM | –
COc1nc(C(F)(F)F)ccc1CN(C(=O)c1ccc2nc(N)c(C)cc2c1)[C@H](C)c1ncccn1 (single isomer, unassigned) [Example 469] | 0.03 nM | 33 nM | 592 nM | –
Cc1cc2cc(C(=O)N(Cc3ccc(C(F)F)cn3)CC(C)C)ccc2nc1N [Example 324, 2-amino-N-((5-(difluoromethyl)-2-pyridinyl)methyl)-3-methyl-N-(2-methylpropyl)-6-quinolinecarboxamide] | 2 nM | 849 nM | > 10000 nM | –
Cc1cc2cc(C(=O)N(Cc3ccc(C(F)(F)F)cn3)[C@H](C)c3ncccc3F)cnc2nc1N [Example 389, 7-amino-N-((1R)-1-(3-fluoro-2-pyridinyl)ethyl)-6-methyl-N-((5-(trifluoromethyl)-2-pyridinyl)methyl)-1,8-naphthyridine-3-carboxamide] | 0.37 nM | 198 nM | > 10000 nM | –
